Values after ≈ are worked out from the molar mass of the structure shown. Active and inactive are the calls of the source. No cut-off for these calls is given here.
What was measured:
Vero [1] = experiment: Cytotoxicity against african green monkey Vero cell after 48 hrs by Neutral Red dye; type: cell-based, Chlorocebus sabaeus
SK-OV-3 [2] = experiment: Cytotoxicity against human SKOV3 cells after 48 hrs by Neutral Red dye; type: functional, cell-based; conditions: SK-OV-3, 48 h
BT-549 [3] = experiment: Cytotoxicity against human BT549 cells after 48 hrs by Neutral Red dye; type: functional, cell-based; conditions: BT-549, 48 h
KB [4] = experiment: Cytotoxicity against human KB cells after 48 hrs by Neutral Red dye; type: functional, cell-based
Plasmodium falciparum [5] = experiment: Antiplasmodial activity against chloroquine-sensitive Plasmodium falciparum D6 after 72 hrs by LDH assay; type: functional, organism-based
Plasmodium falciparum [6] = experiment: Antiplasmodial activity against chloroquine-resistant Plasmodium falciparum W2 after 72 hrs by LDH assay; type: functional, organism-based
Aspergillus fumigatus [7] = experiment: Antimicrobial activity against Aspergillus fumigatus ATCC 90906 by CLSI method; type: functional, organism-based
SK-MEL [8] = experiment: Cytotoxicity against human SK-MEL cells after 48 hrs by Neutral Red dye; type: functional, cell-based
Staphylococcus aureus [9] = experiment: Antimicrobial activity against Staphylococcus aureus ATCC 29213 at 20 ug/ml by CLSI method; type: functional, organism-based
[10] = Selectivity index, ratio of IC50 for african green monkey (Cercopithecus aethiops) Vero cells to IC50 for chloroquine-resistant Plasmodium falciparum W2; type: toxicity, cell-based; conditions: read-out: Ratio IC50
Staphylococcus aureus [11] = experiment: Antimicrobial activity against Staphylococcus aureus ATCC 29213 by CLSI method; type: functional, organism-based
[12] = Cytotoxicity against pig LLC-PK11 cells after 48 hrs by Neutral Red dye; type: cell-based; conditions: Sus scrofa, LLC-PK11, 48 h
[13] = Selectivity index, ratio of IC50 for african green monkey (Cercopithecus aethiops) Vero cells to IC50 for chloroquine-sensitive Plasmodium falciparum D6; type: toxicity, cell-based; conditions: read-out: Ratio IC50
Candida albicans [14] = experiment: Antimicrobial activity against Candida albicans ATCC 90028 by CLSI method; type: functional, organism-based
Staphylococcus aureus [15] = experiment: Antimicrobial activity against methicillin-resistant Staphylococcus aureus ATCC 33591 at 20 ug/ml by CLSI method; type: functional, organism-based
SK-OV-3 [16] = experiment: Cytotoxicity against human SKOV3 cells at 10 ug/ml after 48 hrs by Neutral Red dye; type: functional, cell-based
Aspergillus fumigatus [17] = experiment: Antimicrobial activity against Aspergillus fumigatus ATCC 90906 at 20 ug/ml by CLSI method; type: functional, organism-based
Staphylococcus aureus [18] = experiment: Antimicrobial activity against methicillin-resistant Staphylococcus aureus ATCC 33591 by CLSI method; type: functional, organism-based
Candida albicans [19] = experiment: Antimicrobial activity against Candida albicans ATCC 90028 at 20 ug/ml by CLSI method; type: functional, organism-based
[20] = Cytotoxicity against pig LLC-PK11 cells at 10 ug/ml after 48 hrs by Neutral Red dye; type: cell-based, Sus scrofa
SK-MEL [21] = experiment: Cytotoxicity against human SK-MEL cells at 10 ug/ml after 48 hrs by Neutral Red dye; type: functional, cell-based
Vero [22] = experiment: Cytotoxicity against african green monkey Vero cell at 10 ug/ml after 48 hrs by Neutral Red dye; type: cell-based, Chlorocebus sabaeus
BT-549 [23] = experiment: Cytotoxicity against human BT549 cells at 10 ug/ml after 48 hrs by Neutral Red dye; type: functional, cell-based
KB [24] = experiment: Cytotoxicity against human KB cells at 10 ug/ml after 48 hrs by Neutral Red dye; type: functional, cell-based
[25] = Chlorocebus sabaeus, Vero, 48 h, read-out: IC50

**Q.** Which results are given for `COc1cccc2c1C(=O)c1c(O)c3c(c(O)c1C2=O)C[C@@](O)(C(=O)CO)C[C@@H]3O[C@H]1C[C@H](N)[C@H](O)[C@H](C)O1` [DOXORUBICIN]?
**A.** IC50 (Vero [1]; [25]): > 5 µg/mL; IC50 (SK-OV-3 [2]): 1.2 µg/mL (≈ 2.21 µM); IC50 (BT-549 [3]): 0.8 µg/mL (≈ 1.47 µM); IC50 (KB [4]): 1.35 µg/mL (≈ 2.48 µM)

**Q.** For `COn1cc(-c2ccccc2)c(O)c([C@@H]2O[C@H]([C@H](C)CCO)[C@@H](C)C[C@H]2C)c1=O`, which IC50 (Plasmodium falciparum [5]) is on record?
**A.** Its IC50 is “Not Active”.

**Q.** What about the IC50 (Vero [1]; vero) of the same molecule?
**A.** Its IC50 is “Non-toxic”.

**Q.** And the IC50 (Plasmodium falciparum [6])?
**A.** Its IC50 is “Not Active”.

**Q.** What does the source list for `CC[C@@H](C)[C@H]1O[C@@H](c2c(O)c(-c3ccccc3)cn(O)c2=O)[C@H](C)C[C@@H]1C` [SEPTORIAMYCIN A]?
**A.** IC50 (Aspergillus fumigatus [7]): 8.76 µg/mL (≈ 23.6 µM); IC50 (SK-MEL [8]): 1.5 µg/mL (≈ 4.04 µM); IC50 (Staphylococcus aureus [9]): Not Active; MIC (Staphylococcus aureus [9]): inactive; selectivity ratio [10]: 6.5; IC50 (Staphylococcus aureus [11]): Not Active; MIC (Staphylococcus aureus [11]): inactive; IC50 (Vero [1]; [25]): 1.3 µg/mL (≈ 3.5 µM); IC50 (SK-OV-3 [2]): 2.6 µg/mL (≈ 7 µM); IC50 (BT-549 [3]): 1.65 µg/mL (≈ 4.44 µM); IC50 [12]: 1.65 µg/mL (≈ 4.44 µM); selectivity ratio [13]: 3.9; IC50 (KB [4]): 5 µg/mL (≈ 13.5 µM); IC50 (Candida albicans [14]): 12.1 µg/mL (≈ 32.5 µM); IC50 (Staphylococcus aureus [15]): Not Active; MIC (Staphylococcus aureus [15]): inactive

**Q.** Which IC50 (Aspergillus fumigatus [7]) does the source give for `C[C@@H]1[C@H](O)[C@@H](C)/C=C/C=C/C=C/C=C/C=C/C=C/C=C/[C@H](O[C@@H]2O[C@H](C)[C@@H](O)[C@H](N)[C@@H]2O)C[C@@H]2O[C@](O)(C[C@@H](O)C[C@@H](O)[C@H](O)CC[C@@H](O)C[C@@H](O)CC(=O)O[C@H]1C)C[C@H](O)[C@H]2C(=O)O` [AMPHOTERICIN B] here?
**A.** Its IC50 is 1.16 µg/mL (≈ 1.26 µM).

**Q.** And the MIC (Aspergillus fumigatus [7])?
**A.** The MIC was 2.5 µg/mL (≈ 2.71 µM).

**Q.** And the IC50 (Candida albicans [14])?
**A.** The IC50 was 0.42 µg/mL (≈ 0.455 µM).

**Q.** And the MIC (Candida albicans [14])?
**A.** The MIC was 2.5 µg/mL (≈ 2.71 µM).

**Q.** Which IC50 (Vero [1]; vero) does the source give for `CCN(CC)CCCC(C)Nc1ccnc2cc(Cl)ccc12` (centres undefined) [CHLOROQUINE] here?
**A.** The IC50 was “Non-toxic”.

**Q.** For `C[C@@H]1CC[C@H]2[C@@H](C)C(=O)O[C@@H]3O[C@@]4(C)CC[C@@H]1[C@]32OO4` [ARTEMISININ], which IC50 (Vero [1]; vero) is on record?
**A.** The IC50 was “Non-toxic”.

**Q.** For `COn1cc(-c2ccccc2)c(O)c([C@@H]2O[C@H]([C@H](C)CCOC(C)=O)[C@@H](C)C[C@H]2C)c1=O`, which IC50 (Plasmodium falciparum [5]) is on record?
**A.** Its IC50 is “Not Active”.

**Q.** And the IC50 (Vero [1]; vero)?
**A.** Its IC50 is “Non-toxic”.

**Q.** What about the IC50 (Plasmodium falciparum [6]) of the same molecule?
**A.** The IC50 was “Not Active”.

**Q.** With `CC[C@@H](C)[C@H]1O[C@@H](c2c(O)c(-c3ccccc3)cn(OC)c2=O)[C@H](C)C[C@@H]1C` as the molecule, how does the IC50 (SK-OV-3 [16]) read?
**A.** Its IC50 is “Not Active”.

**Q.** And the IC50 (Plasmodium falciparum [5])?
**A.** Its IC50 is “Not Active”.

**Q.** And the MIC (Staphylococcus aureus [11]; Staphylococcus aureus, ATCC 29213)?
**A.** Its MIC is 5 µg/mL (≈ 13 µM).

**Q.** What about the IC50 (Staphylococcus aureus [11]; Staphylococcus aureus, ATCC 29213, read-out: IC50) of the same molecule?
**A.** Its IC50 is 2.79 µg/mL (≈ 7.24 µM).

**Q.** What about the IC50 (Aspergillus fumigatus [17]) of the same molecule?
**A.** The IC50 was “Not Active”.

**Q.** And the MIC (Aspergillus fumigatus [17])?
**A.** The MIC was “inactive”.

**Q.** What about the IC50 (Vero [1]; vero) of the same molecule?
**A.** The IC50 was “Non-toxic”.

**Q.** What about the IC50 (Staphylococcus aureus [18]) of the same molecule?
**A.** The IC50 was 2.99 µg/mL (≈ 7.76 µM).

**Q.** And the MIC (Staphylococcus aureus [18])?
**A.** Its MIC is 5 µg/mL (≈ 13 µM).

**Q.** And the IC50 (Candida albicans [19])?
**A.** The IC50 was “Not Active”.

**Q.** And the MIC (Candida albicans [19])?
**A.** The MIC was “inactive”.

**Q.** And the IC50 [20]?
**A.** Its IC50 is “Not Active”.

**Q.** And the IC50 (SK-MEL [21])?
**A.** The IC50 was “Not Active”.

**Q.** And the IC50 (Plasmodium falciparum [6])?
**A.** Its IC50 is “Not Active”.

**Q.** What about the IC50 (Vero [22]) of the same molecule?
**A.** The IC50 was “Not Active”.

**Q.** What about the IC50 (BT-549 [23]) of the same molecule?
**A.** Its IC50 is “Not Active”.

**Q.** What about the IC50 (KB [24]) of the same molecule?
**A.** Its IC50 is “Not Active”.

— ChEMBL document CHEMBL1177737, “Bioactive 1,4-dihydroxy-5-phenyl-2-pyridinone alkaloids from Septoria pistaciarum” (J Nat Prod, 2010)
